Laboratory results as given in ChEMBL document CHEMBL4321852, “Structure-Based and Property-Driven Optimization of N-Aryl Imidazoles toward Potent and Selective Oral RORγt Inhibitors” (J Med Chem, 2019).

Experiments:
[1] = Oral bioavailability in DA rat at 3 mg/kg; assay type: ADME, organism-based; settings: in vivo
[2] = molecular target: T1, Nuclear receptor ROR-gamma (Homo sapiens, UniProt P51449); test: Displacement of RIP140 cofactor peptide from human His6-tagged RORgammat LBD (264 to 518 residues) by TR-FRET assay
T1 sequence (P51449 whole entry): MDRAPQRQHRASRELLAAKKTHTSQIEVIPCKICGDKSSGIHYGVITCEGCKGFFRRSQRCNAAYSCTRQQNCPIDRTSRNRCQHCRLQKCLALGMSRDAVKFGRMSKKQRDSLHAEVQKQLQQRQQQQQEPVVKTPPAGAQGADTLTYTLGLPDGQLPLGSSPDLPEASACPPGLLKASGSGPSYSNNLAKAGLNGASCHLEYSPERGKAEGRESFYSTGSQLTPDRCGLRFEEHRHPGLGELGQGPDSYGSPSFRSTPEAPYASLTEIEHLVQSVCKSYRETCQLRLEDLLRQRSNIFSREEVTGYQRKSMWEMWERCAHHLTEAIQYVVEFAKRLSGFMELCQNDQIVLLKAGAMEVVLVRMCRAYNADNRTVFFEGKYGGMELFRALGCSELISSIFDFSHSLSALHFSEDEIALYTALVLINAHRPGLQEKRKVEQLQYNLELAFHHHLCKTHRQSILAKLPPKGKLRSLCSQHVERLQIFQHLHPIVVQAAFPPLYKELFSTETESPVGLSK

[3] = molecular target: T2, Nuclear receptor ROR-alpha (Homo sapiens, UniProt P35398); test: Inhibition of Gal4-tagged RORalpha LBD (unknown origin) by cell based luciferase reporter gene assay
T2 sequence (P35398 whole entry): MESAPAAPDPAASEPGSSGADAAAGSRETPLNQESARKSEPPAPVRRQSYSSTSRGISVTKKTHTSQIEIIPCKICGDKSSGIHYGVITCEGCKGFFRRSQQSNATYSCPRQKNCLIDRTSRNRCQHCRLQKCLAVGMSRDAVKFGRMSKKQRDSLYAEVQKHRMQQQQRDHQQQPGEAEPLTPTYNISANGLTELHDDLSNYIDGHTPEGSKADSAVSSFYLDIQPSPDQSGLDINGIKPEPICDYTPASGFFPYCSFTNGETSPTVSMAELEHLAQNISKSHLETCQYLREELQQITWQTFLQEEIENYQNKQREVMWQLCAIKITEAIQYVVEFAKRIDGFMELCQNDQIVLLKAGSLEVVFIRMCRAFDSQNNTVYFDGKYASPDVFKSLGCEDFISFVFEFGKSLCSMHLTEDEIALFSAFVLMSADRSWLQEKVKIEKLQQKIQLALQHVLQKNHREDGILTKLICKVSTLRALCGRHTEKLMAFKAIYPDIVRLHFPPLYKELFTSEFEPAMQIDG

[4] = Dose normalized Cmax in DA rat at 5 mg/kg, po; assay type: ADME, organism-based; settings: in vivo
[5] = molecular target: T1, Nuclear receptor ROR-gamma; test: Inhibition of Gal4-tagged RORgammat LBD (unknown origin) by cell based luciferase reporter gene assay
[6] = Volume of distribution at steady state in Sprague-Dawley rat at 1 mg/kg, iv; assay type: ADME, organism-based; settings: in vivo, read-out: Vdss
Bile acid receptor = molecular target: T3, Bile acid receptor (Homo sapiens, UniProt Q96RI1); test: Inhibition of Gal4-tagged FXR LBD (unknown origin) by cell based luciferase reporter gene assay
T3 sequence (Q96RI1 whole entry): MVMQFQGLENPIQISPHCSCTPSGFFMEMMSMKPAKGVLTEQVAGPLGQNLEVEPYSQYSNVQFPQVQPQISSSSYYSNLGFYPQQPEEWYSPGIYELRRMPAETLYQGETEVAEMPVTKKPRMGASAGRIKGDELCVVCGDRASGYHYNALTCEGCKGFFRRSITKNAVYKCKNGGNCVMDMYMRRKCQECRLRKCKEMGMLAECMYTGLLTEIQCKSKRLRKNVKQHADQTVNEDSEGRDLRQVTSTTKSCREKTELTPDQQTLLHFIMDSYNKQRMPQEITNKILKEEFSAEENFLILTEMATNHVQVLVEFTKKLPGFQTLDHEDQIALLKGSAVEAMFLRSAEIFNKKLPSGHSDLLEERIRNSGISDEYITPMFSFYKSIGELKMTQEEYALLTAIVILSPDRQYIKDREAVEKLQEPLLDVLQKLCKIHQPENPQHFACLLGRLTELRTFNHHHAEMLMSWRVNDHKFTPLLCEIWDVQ

[7] = Inhibition of RORgammat in rat CD4+ T-cells polarized with Th17 cytokine mix assessed as inhibition of IL-17 secretion
[8] = Tmax in DA rat at 5 mg/kg, po; assay type: ADME, organism-based; settings: in vivo
[9] = molecular target: T1, Nuclear receptor ROR-gamma; test: Inhibition of human full-length eGFP-tagged RORgammat expressed in human HUT78 T-cells assessed as inhibition of PMA/CD3 monoclonal antibody stimulated IL-17 secretion after 48 hrs by ELISA; assay type: cell-based
[10] = molecular target: T4, Retinoic acid receptor RXR-alpha (Homo sapiens, UniProt P19793); test: Inhibition of Gal4-tagged RXRalpha LBD (unknown origin) by cell based luciferase reporter gene assay
T4 sequence (P19793 whole entry): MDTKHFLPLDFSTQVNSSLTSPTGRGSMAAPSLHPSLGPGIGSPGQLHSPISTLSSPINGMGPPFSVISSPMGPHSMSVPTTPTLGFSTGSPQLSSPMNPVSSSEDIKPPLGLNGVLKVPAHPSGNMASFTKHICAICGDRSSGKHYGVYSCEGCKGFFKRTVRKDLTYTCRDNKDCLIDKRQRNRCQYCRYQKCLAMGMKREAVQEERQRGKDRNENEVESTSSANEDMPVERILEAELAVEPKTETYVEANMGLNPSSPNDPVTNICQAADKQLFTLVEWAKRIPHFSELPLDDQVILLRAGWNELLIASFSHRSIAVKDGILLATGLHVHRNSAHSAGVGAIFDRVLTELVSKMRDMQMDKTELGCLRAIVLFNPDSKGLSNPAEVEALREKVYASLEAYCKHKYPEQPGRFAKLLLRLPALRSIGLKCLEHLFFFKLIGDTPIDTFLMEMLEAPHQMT

[11] = Clearance in Sprague-Dawley rat at 1 mg/kg, iv; assay type: ADME, organism-based; settings: in vivo
[12] = molecular target: T1, Nuclear receptor ROR-gamma; test: Inhibition of human GAL4-DBD fused RORgammat LBD expressed in human Jurkat cells assessed as inhibition of receptor transactivation after 24 hrs by luciferase reporter gene assay; assay type: cell-based

bioavailability [1]: 90%
IC50 [2]: 5 nM
IC50 [3]: > 10000 nM
Cmax/dose [4]: 2448 nM
IC50 [5]: 151 nM
Vd [6]: 1 L/kg
IC50 (Bile acid receptor): > 10000 nM
IC50 [7]: 387 nM
Tmax [8]: 1 h
IC50 [9]: 70 nM
IC50 [10]: > 10000 nM
clearance [11]: 2.7 mL/min/kg
IC50 [12]: 151 nM
Compound: Cc1c(C2(C(F)(F)F)CC2)nc(C2CC2)n1-c1c(Cl)ccc(N2CC3(CC(C(=O)O)C3)C2)c1Cl (single isomer, unassigned; atropisomer)
